Source: US10155004B2, “17-hydroxy-17-pentafluoroethyl-estra-4,9(10)-dien-11-aryl derivatives, method of production thereof and use thereof for the treatment of diseases” (BAYER INTELLECTUAL PROPERTY GMBH, priority 2009, dated 2018)

Tests used:
[1] = biological target: T1, human progesterone receptor A (Homo sapiens, UniProt P06401); experiment: Progesterone receptor-antagonistic action in stably transfected SK-N-MC cells, MTV-LUC reporter (PR-A); type: cell-based; details: antagonism of 0.1 nmol/l promegestone, 24 hours, LUC reporter, read-out: Progesterone receptor A (PR-A) Potency IC50
T1 construct: expressed in transfected cells; host or cells: SK-N-MC human neuroblastoma cells, stably transfected
T1 sequence (P06401 1-769 isoform P06401-2): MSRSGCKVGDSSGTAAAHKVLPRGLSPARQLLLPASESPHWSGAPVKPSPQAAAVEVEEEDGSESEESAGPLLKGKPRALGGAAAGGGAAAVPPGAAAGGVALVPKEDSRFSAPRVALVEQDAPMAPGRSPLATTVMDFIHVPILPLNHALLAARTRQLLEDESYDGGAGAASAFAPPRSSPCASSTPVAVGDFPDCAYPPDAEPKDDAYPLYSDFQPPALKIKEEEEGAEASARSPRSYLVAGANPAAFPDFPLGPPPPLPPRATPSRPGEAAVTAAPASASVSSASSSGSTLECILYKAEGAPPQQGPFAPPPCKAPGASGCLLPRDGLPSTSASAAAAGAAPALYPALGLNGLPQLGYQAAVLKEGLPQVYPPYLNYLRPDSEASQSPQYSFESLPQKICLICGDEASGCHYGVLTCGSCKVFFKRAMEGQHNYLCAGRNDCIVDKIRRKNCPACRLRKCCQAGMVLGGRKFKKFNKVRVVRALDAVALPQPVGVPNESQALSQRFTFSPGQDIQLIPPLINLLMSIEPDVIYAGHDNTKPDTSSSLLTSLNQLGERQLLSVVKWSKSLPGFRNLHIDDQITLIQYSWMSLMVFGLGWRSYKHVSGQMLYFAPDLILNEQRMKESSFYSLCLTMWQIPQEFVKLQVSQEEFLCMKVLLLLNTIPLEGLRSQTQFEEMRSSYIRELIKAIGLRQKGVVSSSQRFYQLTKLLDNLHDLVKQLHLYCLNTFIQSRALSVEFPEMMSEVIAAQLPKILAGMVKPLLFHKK
Procedure: (§1) EXAMPLE 16 PROGESTERONE RECEPTOR-ANTAGONISTIC ACTION IN STABLE TRANSFECTANTS OF HUMAN NEUROBLASTOMA CELLS (SK-N-MC CELLS) WITH THE HUMAN PROGESTERONE A OR PROGESTERONE B RECEPTOR AND AN MTV-LUC REPORTER CONSTRUCT
(§2) SK-N-MC cells (human neuroblastoma cells), which have been stably transfected with plasmids, which express the human progesterone receptor B (pRChPR-B-neo) or the human progesterone receptor A (pRChPR-A-neo) and a reporter construct (pMMTV-LUC), were incubated for 24 hours either in the absence (negative control) or in the presence of increasing amounts of the respective test compound (0.01 nmol/l, 0.1 nmol/l 1 nmol/l, 10 nmol/l, 100 nmol/l and 1 μmol/l), in order to determine the agonistic efficacy. As positive control of reporter gene induction, the cells were treated with the synthetic gestagen promegestone (0.01 nmol/l, 0.1 nmol/l, 1 nmol/l, 10 nmol/l, 100 nmol/l and 1 μmol/l). For determination of the antagonistic activity, the cells were treated with 0.1 nmol/1 promegestone and additionally with increasing amounts of the respective test compound (0.01 nmol/l, 0.1 nmol/l, 1 nmol/l, 10 nmol/l, 100 nmol/l and 1 μmol/l). The activity of the LUC reporter gene (LUC=luciferase) was determined in the cell lysates and was measured as RLU (relative light units). All measured values are given as percentage efficacy and as EC50 or IC50 concentrations.
(§3) 11β-(4-Acetylphenyl)-20,20,21,21,21-pentafluoro-17-hydroxy-19-nor-17α-pregna-4,9-dien-3-one and 20,20,21,21,21-pentafluoro-17-hydroxy-11β-[4-(hydroxyacetyl)phenyl]-19-nor-17α-pregna-4,9-dien-3-one, very potent and therefore preferred examples from WO98/34947 and WO2008/058767, were tested as comparative compounds along with the test compound.

[2] = biological target: T2, human progesterone receptor B (Homo sapiens, UniProt P06401); experiment: Progesterone receptor-antagonistic action in stably transfected SK-N-MC cells, MTV-LUC reporter (PR-B); type: cell-based; details: antagonism of 0.1 nmol/l promegestone, 24 hours, LUC reporter, read-out: Progesterone receptor B (PR-B) Potency IC50
T2 construct: expressed in transfected cells; host or cells: SK-N-MC human neuroblastoma cells, stably transfected
T2 sequence (P06401 1-933): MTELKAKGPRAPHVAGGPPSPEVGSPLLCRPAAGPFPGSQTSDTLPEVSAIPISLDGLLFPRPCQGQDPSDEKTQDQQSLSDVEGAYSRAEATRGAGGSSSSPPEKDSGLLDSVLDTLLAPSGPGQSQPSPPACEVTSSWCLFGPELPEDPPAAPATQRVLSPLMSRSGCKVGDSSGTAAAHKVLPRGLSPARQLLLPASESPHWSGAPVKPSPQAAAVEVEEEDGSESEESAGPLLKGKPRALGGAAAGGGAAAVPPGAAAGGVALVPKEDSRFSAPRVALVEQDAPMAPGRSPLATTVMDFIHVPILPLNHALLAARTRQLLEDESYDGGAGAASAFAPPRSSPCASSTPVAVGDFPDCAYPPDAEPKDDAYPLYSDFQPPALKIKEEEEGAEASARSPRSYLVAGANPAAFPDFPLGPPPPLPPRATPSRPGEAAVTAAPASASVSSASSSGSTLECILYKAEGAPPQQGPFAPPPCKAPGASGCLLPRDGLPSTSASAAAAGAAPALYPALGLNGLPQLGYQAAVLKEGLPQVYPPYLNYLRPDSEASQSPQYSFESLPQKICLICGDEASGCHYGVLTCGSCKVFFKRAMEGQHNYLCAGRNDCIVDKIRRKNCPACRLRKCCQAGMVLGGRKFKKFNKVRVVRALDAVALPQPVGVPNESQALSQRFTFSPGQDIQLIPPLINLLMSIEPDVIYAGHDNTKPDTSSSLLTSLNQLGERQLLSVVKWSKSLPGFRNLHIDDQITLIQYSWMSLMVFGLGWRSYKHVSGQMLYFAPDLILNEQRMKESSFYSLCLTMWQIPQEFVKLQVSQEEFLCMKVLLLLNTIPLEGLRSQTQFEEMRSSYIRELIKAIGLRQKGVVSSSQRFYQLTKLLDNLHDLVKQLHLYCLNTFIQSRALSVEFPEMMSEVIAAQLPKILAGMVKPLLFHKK
Procedure: as §1, §2, §3

[3] = Metabolic stability in human liver microsomes (HLM); type: in vitro ADME; details: from HLM half-life, well-stirred model, phase I reactions; 1 μM, 0.5 mg/ml protein
Procedure: EXAMPLE 18 METABOLIC STABILITY OF (11β,17β)-17-HYDROXY-11[4-(METHYLSULPHONYL)PHENYL]-17-(PENTAFLUOROETHYL)ESTRA-4,9-DIEN-3-ONE AND (11β,17β)-17-HYDROXY-11-[4′-(METHYLSULPHONYL)-BIPHENYL-4-YL]-17-(PENTAFLUOROETHYL)ESTRA-4,9-DIEN-3-ONE IN HUMAN LIVER MICROSOMES (HLM)
Isolated human liver microsomes (HLM) were used for assessing the metabolic stability of compounds of general formula I.
Incubations were carried out with 2.4 ml of HLM solution (0.5 mg/ml protein content), 30 μl of the test compound (final concentration 1 μM) and 0.6 ml of the cofactor mixture (=NADPH-generating system of 3 IU glucose-6-phosphate dehydrogenase, 14.6 mg glucose-6-phosphate, 1.2 mg NADP) at 37° C. in 100 mM phosphate buffer at pH 7.4. Samples are taken at 6 time points (2-60 min), precipitated with an equal volume of methanol and the recovery of the test substances used in the supernatant is determined by LC-MS/MS analysis. The intrinsic clearance of the substance in the liver microsome preparation can be calculated from the half-life found for the breakdown of the substance. Based on this, together with various physiological characteristics according to the well-stirred model, it is then possible to predict a (metabolic) in vivo clearance with respect to phase I reactions. […]

IC50 [1]: 0.011 nM | IC50 [2]: 0.013 nM | (metabolic) in vivo clearance in humans predicted [3]: < 0.01 L/h/kg
Compound: C[C@]12C[C@H](c3ccc(-c4ccc(S(C)(=O)=O)cc4)cc3)C3=C4CCC(=O)C=C4CC[C@H]3[C@@H]1CC[C@@]2(O)C(F)(F)C(F)(F)F [Example 10, (11β,17β)-17-hydroxy-11-[4′-(methylsulphonyl)biphenyl-4-yl]-17-(pentafluoroethy)estra-4,9-dien-3-one]
